Laboratory results from PMC5578599, “Programmed cell death in Acanthamoeba castellanii Neff induced by several molecules present in olive leaf extracts” (PLoS ONE, 2017).
Values after ≈ are worked out from the molar mass of the structure shown. “Also recorded” adds a separate entry of the source. Where two headings read alike, the source gives them in different places. Values belong to the compound of their own block, whether it stands above or below them.

Assays:
[1] = system: CLC-51, genotype T1; assay: Alamar Blue assay against the trophozoite stage, clinical isolate CLC-51; type: cell-based; settings: Acanthamoeba, trophozoites, IC50/96 h
Experimental: (§1) The strains used in this study included a type strain: Acanthamoeba castellanii Neff (ATCC 30010), and two clinical isolates, CLC-16, genotype T3; and CLC-51, genotype T1, which were isolated in a previous study. The strains were axenically grown in PYG medium (0.75% (w/v) proteose peptone, 0.75% (w/v) yeast extract and 1.5% (w/v) glucose) containing 40 μg/ml of gentamicin (Biochrom AG, Cultek, Granollers, Barcelona, Spain).
(§2) The anti-Acanthamoeba activities of the tested molecules were determined using the Alamar Blue® assay as previously described. Briefly, Acanthamoeba strains were seeded in duplicate on a 96-well microtiter plates with 50μl from a stock solution of 10^4 cells/ml. Amoebae were left to adhere for 15 min process which was checked using a Leika DMIL inverted microscope (Leika, Wetzlar, Germany). After that, 50 μl of serial dilutions of the molecules to be evaluated were added to the wells (In all tests, 1% DMSO was used to dissolve the highest dose of the compounds without inducing any effects on the parasites). Finally the Alamar Blue Reagent® (Life Technologies, Madrid, Spain) was placed into each well at an amount equal to 10% of the final volume. Test plates containing Alamar Blue were then incubated for 120 h at 28°C with a slight agitation.
(§3) Subsequently the plates were analyzed, during an interval of time between 72 and 144 h, on an EnSpire® Multimode Plate Reader (Perkin Elmer, Madrid, Spain) using a test wavelength of 570 nm and a reference wavelength of 630 nm. Percentages of growth inhibition, 50% and 90% inhibitory concentrations (IC50 and IC90) were calculated by linear regression analysis with 95% confidence limits. All experiments were performed three times, and the mean values were also calculated.

[2] = system: CLC-16, genotype T3; assay: Alamar Blue assay against the trophozoite stage, clinical isolate CLC-16; type: cell-based; settings: Acanthamoeba, trophozoites, IC50/96 h
Experimental: as §1, §2, §3

[3] = system: macrophages J774.A1; assay: LDH release cytotoxicity test; type: cell-based, murine; settings: for Cytotoxicity level at the IC50 against Acanthamoeba / Cytotoxicity level at the IC90 against Acanthamoeba: J774A.1 murine macrophages, 24 hours, LDH release; for Cytotoxicity level at the IC50 against Acanthamoeba: compound at its IC50; for Cytotoxicity level at the IC90 against Acanthamoeba: compound at its IC90
Experimental: A commercial kit was used for the evaluation of the induced cytotoxic effects of tested compounds based on the measurement of lactate dehydrogenase (LDH) quantity released to the media (LDH Cytotoxicity Detection Kit, Roche Applied Science, Madrid, Spain), following the manufacturer's instructions. Briefly, the macrophages J774.A1 (ATCC # TIB-67) were incubated with different concentrations of the tested compounds for 24 hours in duplicate. After incubation, supernatants were obtained and LDH levels were determined following manufacturer′s instructions. To determine the cytotoxicity percentages, the average absorbance values of the duplicates were calculated and compared with negative and positive controls. Cytotoxic levels were determined as previously described.

[4] = system: Acanthamoeba castellanii Neff (ATCC 30010); assay: Alamar Blue assay against the trophozoite stage, A. castellanii Neff; type: cell-based; settings: IC50/96 h; for IC50: Acanthamoeba castellanii, ATCC30010, trophozoites; for IC50 A. Neff: trophozoites
[5] = system: Acanthamoeba castellanii Neff (ATCC 30010); assay: as above; type: cell-based; settings: for IC90: ATCC30010, trophozoites, Alamar Blue
Experimental: as §1, §2, §3

[6] = system: A. Neff membrane; assay: SYTOX Green plasma membrane permeability; type: cell-based, Acanthamoeba castellanii; settings: IC90, SYTOX Green, relative to Triton X-100 positive control
Experimental: The SYTOX® Green assay was performed to detect membrane permeability alterations on the parasites. Briefly, 10^5 amoebae/ml were incubated with the SYTOX® Green at a final concentration of 1 μM (Molecular Probes®) for 30 min in the dark at 26°C. Subsequently, parasites were disposed to black plates and the tested compounds were added at the IC90. The increase in fluorescence due to binding of the fluorescent marker to the amoebic DNA was measured using an EnSpire® Multimode Plate Reader (Perkin Elmer, Madrid, Spain) with excitation wavelength of 504 nm and emission wavelength at 523 nm, and expressed as percentage relative to full permeabilized cells achieved by the addition of 0.1% Triton X-100 [17–19].

[7] = system: A. Neff; assay: JC-1 mitochondrial membrane potential; type: cell-based, Acanthamoeba castellanii; settings: IC90, 24 hours
Experimental: The ΔΨm was measured using JC-1 Mitochondrial Membrane Potential Assay Kit (Cayman Chemical, Vitro, Madrid, Spain). This lipophilic cationic probe accumulates in the mitochondrial matrix according to the membrane potential. In healthy cells with a high ΔΨm, JC-1 spontaneously forms complexes known as J-aggregates, showing intense red fluorescence (emission at 595 nm). […] In brief, amoebae, after 24 hours of incubation with different concentrations of the tested compounds, were harvested and washed with buffer. The cells were then incubated at 26°C for 30 minutes with JC-1 dye. Cells were then analyzed by fluorescence measurement in black plates through spectrofluorometer using 490 nm as excitation wavelength. Data presented here are representative of three experiments. The ratio of the reading at 595 nm to the reading at 535 nm was considered as the relative ΔΨm value.

[8] = system: Acanthamoeba castellanii Neff; assay: Annexin-V/PI image-based cytometry for apoptosis; type: cell-based; settings: treated with IC90, 24 h
Experimental: Annexin-V/propidium iodide (PI) double staining assay was performed using the Tali® Apoptosis Kit—Annexin V Alexa Fluor® 488 & Propidium Iodide according to the manufacturer's instructions (Life Technologies, Madrid, Spain). […] After that, cells were centrifuged and resuspended in ABB containing 1 μl of PI and incubated for 3 min at room temperature. Finally, 25 μl of the stained cells were loaded into a Tali® Cellular Analysis Slide and were analysed in the Tali® Image-Based Cytometer. Data were collected using the Tali® data acquisition and analysis software (Life Technologies, Madrid, Spain).

IC50 [4]: > 100 µg/mL
SMILES: O=C(O)/C=C/c1ccc(O)c(O)c1 [Caffeic acid]

IC50 [4]: > 100 µg/mL
SMILES: O=C(/C=C/c1ccc(O)c(O)c1)O[C@@H]1C[C@](O)(C(=O)O)C[C@@H](O)[C@H]1O [Chlorogenic acid]

IC50 [4]: 67.4 ± 3.59 µg/mL (≈ 223 µM)
SMILES: O=c1oc2c(O)c(O)cc3c(=O)oc4c(O)c(O)cc1c4c23 [Ellagic acid]

IC50 [4]: > 100 µg/mL
SMILES: O=C(O)c1cc(O)c(O)c(O)c1 [Gallic acid]

IC50 [4]: > 100 µg/mL
SMILES: OCCc1ccc(O)c(O)c1 [Hydroxytyrosol]

IC50 [4]: 57.5 ± 4.32 µg/mL (≈ 106 µM)
SMILES: C/C=C1/[C@H](O[C@@H]2O[C@H](CO)[C@@H](O)[C@H](O)[C@H]2O)OC=C(C(=O)OC)[C@H]1CC(=O)OCCc1ccc(O)c(O)c1 [Oleuropein]

IC50 A. Neff [4]: 36.05 ± 1.31 µg/mL (≈ 234 µM)
SMILES: O=C(O)c1ccc(O)c(O)c1 [Protochatechuic acid]

IC90 [5]: 119 µg/mL (≈ 261 µM) | IC50 A. Neff [4]: 23.94 ± 1.14 µg/mL (≈ 52.4 µM)
SMILES: C[C@H]1[C@H](C)CC[C@]2(C(=O)O)CC[C@]3(C)C(=CC[C@@H]4[C@@]5(C)CC[C@H](O)C(C)(C)[C@@H]5CC[C@]43C)[C@H]12 [Ursolic acid]
IC50 [1]: 28 ± 2.26 µg/mL (≈ 61.2 µM) | IC50 [2]: 55 ± 1.21 µg/mL (≈ 120 µM) | Percentage of apoptotic cells [8]: 26% | Decrease of the membrane potential (ΔΨm) [7]: 80%

IC50 [4]: > 100 µg/mL
SMILES: C[C@@H]1O[C@@H](O[C@@H]2[C@@H](O)[C@H](OCCc3ccc(O)c(O)c3)O[C@H](CO)[C@H]2OC(=O)/C=C/c2ccc(O)c(O)c2)[C@H](O)[C@H](O)[C@H]1O [Verbascoside]

IC50 A. Neff [4]: 65.75 ± 3.97 µg/mL (≈ 401 µM)
SMILES: O=C(O)/C=C/c1cccc(O)c1 [m-coumaric acid]

Continued, compound first:

SMILES: O=c1cc(-c2ccc(O)cc2)oc2cc(O)cc(O)c12 [Apigenine]
IC50 [1]: 20.2 ± 0.73 µg/mL (≈ 74.6 µM) | IC50 [2]: 57 ± 2.68 µg/mL (≈ 211 µM) | Cytotoxicity level at the IC50 against Acanthamoeba [3]: high cytotoxicity (abve 40% correspond to high cytotoxicity) | Cytotoxicity level at the IC90 against Acanthamoeba [3]: high cytotoxicity (abve 40% correspond to high cytotoxicity) | IC50 [4]: 6.59 ± 0.39 µg/mL (≈ 24.4 µM)

SMILES: O.Oc1cc(O)c2c(c1)O[C@H](c1ccc(O)c(O)c1)[C@@H](O)C2 [Catechin hydrate]
IC50 A. Neff [4]: >100 µg/mL

SMILES: COc1cc(/C=C/C(=O)O)ccc1O [Ferulic acid]
IC50 A. Neff [4]: 62.03 ± 1.78 µg/mL (≈ 319 µM)

SMILES: O=c1cc(-c2ccc(O)c(O)c2)oc2cc(O[C@@H]3O[C@H](CO)[C@@H](O)[C@H](O)[C@H]3O)cc(O)c12 [Luteolin 7-o-glucoside]
IC50 A. Neff [4]: 61.98 ± 3.93 µg/mL (≈ 138 µM)

SMILES: O=c1cc(-c2ccc(O)c(O)c2)oc2cc(O)cc(O)c12 [Luteolin]
IC50 [1]: 26.6 ± 1.75 µg/mL (≈ 93 µM) | IC50 [2]: 83.1 ± 0.89 µg/mL (≈ 290 µM) | IC50 [4]: 28 ± 1.73 µg/mL (≈ 97.7 µM)

SMILES: CC1(C)CC[C@]2(C(=O)O)CC[C@]3(C)C(=CC[C@@H]4[C@@]5(C)C[C@@H](O)[C@H](O)C(C)(C)[C@@H]5CC[C@]43C)[C@@H]2C1 [Maslinic acid]
IC50 ([5]; ATCC30010, read-out: IC50 A. Neff): 30.9 ± 1.33 µg/mL (≈ 65.3 µM)

SMILES: CC1(C)CC[C@]2(C(=O)O)CC[C@]3(C)C(=CC[C@@H]4[C@@]5(C)CC[C@H](O)C(C)(C)[C@@H]5CC[C@]43C)[C@@H]2C1 [Oleanolic acid]
IC50 [4]: 43.7 ± 3.34 µg/mL (≈ 95.6 µM)

SMILES: O=c1c(O)c(-c2ccc(O)c(O)c2)oc2cc(O)cc(O)c12 [Quercetin hydrate]
IC50 [4]: > 100 µg/mL

SMILES: C[C@@H]1O[C@@H](OC[C@H]2O[C@@H](Oc3c(-c4ccc(O)c(O)c4)oc4cc(O)cc(O)c4c3=O)[C@H](O)[C@@H](O)[C@@H]2O)[C@H](O)[C@H](O)[C@H]1O [Rutin]
IC50 [4]: 61.4 ± 5.44 µg/mL (≈ 101 µM)

SMILES: COc1cc(C(=O)O)cc(OC)c1O [Syringic acid]
IC90 [5]: 119 µg/mL (≈ 602 µM) | IC50 [1]: 63.07 ± 0.56 µg/mL (≈ 318 µM) | IC50 [2]: 51.5 ± 2.41 µg/mL (≈ 260 µM) | Cytotoxicity (in words) ([3]; J774A.1 macrophages, Fig 2): lowest toxic levels | Cytotoxicity level at the IC50 against Acanthamoeba [3]: low cytotoxicity (Values between 10 and 25% correspond to low cytotoxicity) | Cytotoxicity level at the IC90 against Acanthamoeba [3]: low cytotoxicity (Values between 10 and 25% correspond to low cytotoxicity) | Plasma membrane permeabilization [6]: induced the higher permeabilization; also recorded: caused plasma membrane permeability | Decrease of the membrane potential (ΔΨm) [7]: 68% | IC50 [4]: 22.9 ± 2.14 µg/mL (≈ 116 µM)

SMILES: OCCc1ccc(O)cc1 [Tyrosol]
IC50 [4]: 63.77 ± 0.34 µg/mL (≈ 462 µM)

SMILES: COc1cc(C(=O)O)ccc1O [Vanillic acid]
IC90 [5]: 133 µg/mL (≈ 789 µM) | IC50 [1]: 61.7 ± 4.43 µg/mL (≈ 367 µM) | IC50 [2]: 65.4 ± 0.89 µg/mL (≈ 389 µM) | Cytotoxicity level at the IC50 against Acanthamoeba [3]: low cytotoxicity (Values between 10 and 25% correspond to low cytotoxicity) | Plasma membrane permeabilization [6]: induced the higher permeabilization; also recorded: caused plasma membrane permeability | Decrease of the membrane potential (ΔΨm) [7]: 68% | IC50 [4]: 34.7 ± 1.32 µg/mL (≈ 206 µM)

SMILES: COc1cc(C=O)ccc1O [Vanillin]
IC90 [5]: 123 µg/mL (≈ 810 µM) | IC50 [1]: 37.2 ± 2.85 µg/mL (≈ 244 µM) | IC50 [2]: 58.1 ± 3.77 µg/mL (≈ 382 µM) | Cytotoxicity level at the IC50 against Acanthamoeba [3]: low cytotoxicity (Values between 10 and 25% correspond to low cytotoxicity) | Plasma membrane permeabilization [6]: caused plasma membrane permeability | Decrease of the membrane potential (ΔΨm) [7]: 36% | IC50 [4]: 25.6 ± 2.1 µg/mL (≈ 168 µM)

SMILES: O=C(O)/C=C/c1ccc(O)cc1 [p-coumaric acid]
IC50 [4]: 72.19 ± 0.19 µg/mL (≈ 440 µM)
